From a melting point compilation (Tetko et al.; mined from patent text by program, amines drawn as free bases though some values may be those of a salt) come the findings set out here.

SMILES strings stand for the structures.

The term melting point denotes the temperature of the solid-liquid transition.

Regarding `COC(=O)Cc1ccc2nc(Nc3ccccc3)oc2c1`, the melting point was in the range of 155 to 157 °C. Consider `O=[N+]([O-])c1ccc(/C=C/c2ccc(Cl)c(C(F)(F)F)c2)cc1`, for which the melting point fell in the range of 173 to 174 °C. The compound `CN(C)CCc1nc(C(N)=O)c2n1-c1ccc(Cl)cc1C(c1ccccc1Cl)=NC2` yielded a melting point of 249 to 251 °C. The compound `CCNC(=O)c1ccc(-n2nnc(C(=O)NC3CC3)c2COCc2ccccc2)c(OCc2ccccc2)c1` displayed a melting point of 132 °C. In the case of `ClCc1ccc(OCc2ccccc2)cc1`, the melting point is 74 to 76 °C.

`Oc1ncnc2c(-c3ccc(Cc4ccc(Cl)cc4)cc3)cnn12` registered a melting point of 292 to 296 °C.

`COc1ccc(N(CCCC(=O)O)C(=O)CCN(C(=O)c2ccc(Cl)cc2)c2ccc(OC)cc2)cc1` came in with a melting point of 91 to 93 °C. In the case of `N#CC(C#N)=C1CC(=C(C#N)C#N)c2ccccc21` it was 224 to 228 °C; in that of `Cn1c(CC(=O)O)ccc1C(=O)c1ccc(N)cc1`, 173 to 175 °C; in that of `O=Cc1cc(-n2nnnc2C(F)(F)F)ccc1OCC1CC1`, 80 to 82 °C. With `CS(=O)(=O)Nc1cc2c(cc1Oc1ccccc1)CCO2`, the melting point came out at 133 °C. Compound `CC(=O)Nc1ccc(C2COc3cc(O)c(O)cc3C2)cc1` (stereo not drawn) came in with a melting point of 201 to 203 °C. With `C[C@@H]1O[C@](C#CC2CC2)(C(F)(F)F)c2c(ccc3c2OCO3)NC1=O` (relative stereo), the melting point lay in the range of 252 to 253 °C. With `CCOC(=O)c1cc2ccoc2nc1C(=O)OCC`, the melting point lay within 66 to 77 °C. In the case of `OCc1ccc(OCc2ccc3ccccc3n2)cc1` it was 131 to 135 °C; in that of `Nc1nc2ccccc2c2c1ncn2CCCCNC(=O)c1ccccc1Oc1ccccc1`, 93 to 94 °C. In the case of `COc1cccc2c1C(C#N)C2` (stereo not drawn) it was 58 to 59 °C; in that of `O=S1(=O)c2cccc3cccc(c23)N1CCN1CCC(Cc2c[nH]c3ccc(F)cc23)CC1`, 161 °C. In the case of `COc1ccc(CC(=O)N2CCCCC2CC(c2ccccc2)c2ccccc2)cc1OC` (stereo not drawn) it was 113 to 114 °C; in that of `COc1ccc(-n2c(-c3ccc(Cl)cc3Cl)nc(C(=O)NC3CCCCC3)c2C)cc1`, 160 to 161 °C. `Cc1nc(-n2ccc(C(F)(F)F)cc2=O)sc1C(=O)NCc1cccnc1` registered a melting point of 172 to 173 °C. Turning to `COc1cccc(-c2nc3sccn3c2-c2ccnc(N[C@@H]3CCCN(C[C@@H](O)CO)C3)n2)c1`, the melting point fell in the range of 106 to 108 °C. `O=Cc1cn(-c2ccc(Cl)cc2)nc1-c1ccc([N+](=O)[O-])o1` had a melting point of 192 to 193 °C. `Cc1ncc2c(n1)-c1ccc(Cl)cc1C(c1ccccc1Cl)N(C)C2` (stereo not drawn) had a melting point of 155 to 156 °C. For `CC(C)C(=O)c1cn(Cc2c(F)cccc2F)c2sc(-c3ccccc3)c(CBr)c2c1=O`, the melting point is 189 to 192 °C. `NNc1ccc(C(=O)c2ccccc2)cc1[N+](=O)[O-]` displayed a melting point of 163 to 164 °C. `O=C(O)c1cnc(Nc2ccccc2F)[nH]c1=O` returned a melting point of 300 °C. For `CCOC(Nc1ccc(C(=O)O)cc1)C(=O)c1ccc(Oc2ccc(Cl)c3ccccc23)cc1` (stereo not drawn), the melting point lay within 155 to 165 °C. `O=c1[nH]c(=Cc2ccc(OCc3ccccc3)cn2)c(=O)[nH]c1=Cc1ccccc1` returned a melting point of 223 to 225 °C. Take `O=C(c1ccc2nonc2c1)N1CCC(O)CC1`: the melting point lay in the range of 132 to 136 °C. With `CCOC(=O)c1cnc2ccc(CC3CCOCC3)cc2c1O`, the melting point was 275 to 280 °C. In the case of `CCCCCCCCOc1ccc(-c2ccc(C(C)OC(=O)CCCCC)cc2)cc1` (single isomer, unassigned; (-)) it was 60.8 °C; in that of `O=C(Cc1ccc(Cl)c(Cl)c1)N1CCCC(N2CCCC2)C1` (stereo not drawn), 134 to 135 °C. In the case of `Brc1cc2c(cn1)[nH]c1ccccc12` it was 300 °C. `N#Cc1ccc(Oc2ncccc2C(=O)O)cc1`: the melting point was 198 to 200 °C. In turn, `Cc1cc(Oc2cccc(C(F)(F)F)c2)nn1C(=O)Nc1ccc(F)cc1F` registered a melting point of 84 to 85 °C. As for `COc1ccc(OC)c(S(=O)(=O)n2c(CCC(=O)O)cc3nc(Cl)ccc32)c1`, the melting point lay within 204 to 209 °C.

Compound `CS(=O)(=O)c1ncc(F)c(N)n1` gave a melting point of 157 to 159 °C. The compound `O=c1[nH]c2cc(F)c(Br)c([N+](=O)[O-])c2[nH]c1=O` came in with a melting point of 323 to 327 °C.

In turn, `CC(C)COC(=O)C1(c2onc(-c3ccc(O)cc3)c2-c2ccccc2)CC1` showed a melting point of 109 to 110 °C. With `COc1ccc2c(c1)c(C)c(-c1ccc(O)cc1)n2Cc1ccc(OCCN2CCCCC2)cc1`, the melting point lay in the range of 87 to 90 °C. `Cc1cc2nc(Cl)cc(NCc3c(C)cccc3C)c2[nH]1` came in with a melting point of 310 to 312 °C. Take `N#CCc1ccc(N)c(Cl)c1`: the melting point was found to be 77 °C. On to `COc1ccc(-c2nc(Cl)c(Oc3ccccc3OC)c(NS(=O)(=O)c3ccc(C(C)(C)C)cc3)n2)cc1`, for which the melting point lay in the range of 221 to 222 °C. In the case of `CC(=O)Cc1ccc(OCc2ccccc2)cc1`, the melting point was 50 to 54 °C. `CC(=O)Nc1ccc(C(=O)N2CCOCC2)cc1N` displayed a melting point of 198 to 200 °C. In turn, `NC(=O)c1ccc(F)c2c1OCC(N(CCCCc1c[nH]c3ccc(F)cc13)CC1CC1)C2` (stereo not drawn) registered a melting point of 116 °C.

With `Cn1ccnc1COc1cc(Cl)ncn1`, the melting point lay in the range of 126 to 128 °C. In the case of `O=C(O)c1cn(-c2cccc(OC(F)F)c2)cn1` it was 190 to 191 °C; in that of `CCn1c(N)c(C(N)=O)c(=O)c2cnc(Nc3ccc(C(=O)N4CCN(C)CC4)cc3)nc21`, 281 °C. The compound `CCCCc1cc(C#N)sc1-c1ccc2c(c1)C(C)(C)OC(=S)N2` came in with a melting point of 174 to 175 °C. In the case of `CCOC(=O)c1cn(-c2ncnn2C)c2nc(Cl)c(F)cc2c1=O` it was 256 to 263 °C; in that of `CC12CCC(C1)C1(C)Oc3ccc(C(=O)Oc4ccc(C(=O)OCc5ccccc5)cc4)cc3C21C` (stereo not drawn), 131 to 133 °C. In turn, `O=C(O)C(OCc1ccc(-c2ccc(Cl)cc2)cc1)(C(F)(F)F)C(F)(F)F` displayed a melting point of 90 to 92 °C. In the case of `CCCN=C(N)Nc1ccnc(CCCCc2ncc(CC)c(O)n2)n1` it was 140 to 142 °C.

`COc1cccc(-c2nc(=O)c3ccccc3s2)n1`: the melting point stood at 226 °C. In turn, `O=c1nc(-c2cccc(CS(=O)(=O)Cc3ccccc3)n2)sc2ccccc12` registered a melting point of 246 to 248 °C. For the compound `Cc1c(Cl)cc(C2=NNC(=O)C(S)C2)cc1Cl` (stereo not drawn), the melting point fell in the range of 184 to 187 °C.

`Cc1ccc(Cl)cc1NC(=O)OC(C)(C)C` returned a melting point of 100 to 102 °C. In the case of `CN(C)C(=O)c1cccc(C(=O)Nc2cccc3cc(Br)cnc23)c1` it was 157 °C; in that of `CCOC(=O)c1nc2c(Cl)cccc2n(-c2ccc(OC)cc2)c1=O`, 128 to 129 °C. In the case of `Cc1cnc(N2C(=O)C(O)=C(C(=O)c3ccc(C(C)C)cc3)C2c2ccc(OC(F)(F)F)cc2)s1` (stereo not drawn) it was 243 to 244 °C. For `CC1(C)Oc2ccc(C#N)cc2[C@@H](NC(=O)Nc2ccc(-c3ncno3)cc2)[C@@H]1O`, the melting point was 162 to 167 °C.
